From article PMC7567501 (Journal of Enzyme Inhibition and Medicinal Chemistry, 2019)
Like-named read-outs stand apart in the source and are kept apart here.

How the values were obtained:
AChE = biological target: T1, AChE (Electrophorus electricus, UniProt O42275); experiment: biochemical; parameters: species or system Electrophorus electricus (electric eel)
T1 construct: extracted from Electrophorus electricus (electric eel); purchased Sigma-Aldrich; host or cells: Electrophorus electricus (extracted)
T1 sequence (O42275 24-633): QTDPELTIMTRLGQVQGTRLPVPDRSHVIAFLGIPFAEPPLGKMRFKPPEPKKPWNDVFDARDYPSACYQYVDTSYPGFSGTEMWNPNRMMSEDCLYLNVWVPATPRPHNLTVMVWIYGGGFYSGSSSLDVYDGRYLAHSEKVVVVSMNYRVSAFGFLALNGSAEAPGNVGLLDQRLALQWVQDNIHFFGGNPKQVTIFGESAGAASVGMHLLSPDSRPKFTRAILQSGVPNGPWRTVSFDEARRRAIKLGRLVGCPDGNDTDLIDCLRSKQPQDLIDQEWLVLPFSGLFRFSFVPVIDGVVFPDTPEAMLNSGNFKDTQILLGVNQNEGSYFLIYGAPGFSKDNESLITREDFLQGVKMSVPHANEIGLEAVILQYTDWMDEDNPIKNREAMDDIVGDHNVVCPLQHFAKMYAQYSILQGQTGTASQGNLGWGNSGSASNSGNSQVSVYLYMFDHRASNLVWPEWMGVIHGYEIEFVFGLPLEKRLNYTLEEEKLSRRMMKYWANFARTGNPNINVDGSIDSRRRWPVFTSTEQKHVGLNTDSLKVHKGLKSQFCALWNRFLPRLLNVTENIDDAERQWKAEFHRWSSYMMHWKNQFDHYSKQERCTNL
Protocol: The electronic spectra and the AChE inhibition assays were performed in a 1-cm path length quartz cell with a Perkin Elmer Lambda 35 spectrophotometer equipped with a temperature programmer PTP1 + 1 Peltier System (T = 25.0 ± 0.1 °C). The enzyme AChE 500 U, extracted from Electrophorus electricus (electric eel), was purchased from Sigma-Aldrich.
The enzymatic activity of AChE was determined using an adaptation of the Ellman’s method, as described previously[29]^,[32]. Firstly, a stock solution of AChE was prepared by dissolving enzyme 500 U in 10 mL of tris(hydroxymethyl)aminomethane (TRIS) buffer (50 mM, pH 8). Then, 4–(2-hydroxyethyl)-1-piperazineethanesulfonic acid (HEPES) buffer was used for further dilution of the enzyme solution therefore obtaining the final working solution of AChE. The assay solution consisted of 374 µL of HEPES buffer (50 mM and pH 8.0), a variable volume (10–50 µL) of the compound’s stock solution (1 mg/mL of MeOH), 476 µL of 3 mM bis(3-carboxy-4-nitrophenyl) disulphide (DTNB), 25 µL of AChE stock solution and the necessary amount of methanol to attain the same volume of sample mixture in a 1 mL cuvette. After mixing, samples were left to incubate for 15 min and then 75 µL of 16 mM acetylthiocholine iodide (AChI) solution was added and immediately the reaction was monitored at 405 nm for 5 min. Firstly, enzyme activity was determined by measuring the rate of enzymatic reaction in solution by recording absorbance (with or without enzyme) at 405 nm. To calculate the percent inhibition of AChE, the enzyme activity in the presence of increasing concentrations of the test compound, as well as for a blank reaction (methanol without compounds), were measured at 405 nm.
Where v1is the initial reaction rate in the presence of the inhibitor and v0 is the initial rate of the control reaction. The curves of inhibition were obtained using a plot of percentage of enzymatic inhibition versus inhibitor concentration, and a calibration curve was obtained from which the linear regression parameters were obtained.

Aβ1-42 [1] = biological target: T2, Aβ1-42 (Homo sapiens, UniProt P05067); experiment: biochemical; conditions: read-out: Aβ aggregation inhibition, Self-Aβ aggr
T2 construct: Amyloid β-peptide (1–42), Aβ1-42, was purchased from GeneCust; purchased GeneCust
T2 sequence (P05067 672-713 limits assumed): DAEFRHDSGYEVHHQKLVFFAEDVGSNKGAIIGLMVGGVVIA
Text: (§1) The Aβ amyloid plaques are one of the main hallmarks of AD and they result from over production and aggregation of β-amyloid peptide, which can accumulate outside the neurons, by self-mediated or Cu^2+-induced process, interfering with the synaptic impairment, neurotransmission and memory. Therefore, anti-AD drugs have been designed aimed to disrupt and disaggregate the Aβ’s fibrils into monomers, obtaining non-toxic forms of β-secretase’s products. To assess the effect of these new hybrids in the inhibition of amyloid peptide aggregation, a selection of the compounds was in vitro assayed, based on the thioflavin T (ThT) method. Indeed ThT is a histochemical dye able to create ionic or hydrophobic interactions with the peptide β–sheets, the predominant secondary structure of the amyloid fibrils in aqueous solutions[36]. This binding interactions can be monitored by fluorimetry since the presence of ThT-fibrils increases the absorbance and the emission of the ThT dye, and induces red shifts on the absorbance (from 385 to 446 nm) and emission peaks (from 445 to 485 nm)[14]. All the measurements were performed after incubation of the self-mediated and Cu^2+-induced Aβ aggregates in the presence/absence of the herein studied compounds. […]. […] This may be rationalised on the basis of their copper chelating capacity, as previously shown by other metal chelating compounds[14]^,[38]. Furthermore, despite some exceptions (e.g. 20 and 24), the increase in linker length and the chloro TAC substitution induce some small negative effects in the inhibition of Aβ self-aggregation.
(§2) For the study of the β-amyloid (Aβ) aggregation, the ThT fluorescence assay was performed using a Varian Cary Eclipse fluorimeter at the following wavelengths: excitation (446 nm) and emission (485 nm). Amyloid β-peptide (1–42), Aβ1-42, was purchased from GeneCust as a lyophilised powder stored at −20 °C. TEM assays were performed with a Hitachi H8100 transmission electron microscope with a LaB6 filament (200 kV, 10000–20000 × magnification) at MicroLab/IST.
(§3) Among all the methods to measure the aggregation of Aβ1-42, the assay based on Thioflavin T (ThT) is the standard procedure based on the fluorescence of this dye[49]^,[50]. This test is performed with Aβ1-42 peptide previously prepared by dissolving it in 1,1,1,3,3,3–hexafluoro-2-propanol (HFIP), an organic solvent useful to solubilise and monomerize the β–sheet protein aggregates and reserve them in the fridge. Films are re-dissolved in an Eppendorf tube with a fresh solution of a mixture of CH3CN/Na2CO3/NaOH, to have a stable stock solution, and afterwards, added to an optimised fibrillation phosphate buffer. The samples were prepared using MeOH (1 mg/mL) as solvent, followed by incubation in a water bath for 24 h at 37 °C with gentle shaking. After incubation, the samples were added to a 96-well plate (BD Falcon) with 180 µL of 5 µM ThT in 50 mM glycine-NaOH (pH 8.5) buffer. Blank samples were prepared for each concentration in a similar way, devoid of peptide. After 5-min incubation with the dye, the ThT fluorescence was measured at 446 nm (excitation) and 485 nm (emission).

[2] = Radical scavenging (anti-oxidant) activity, DPPH method; format: physicochemical; conditions: DPPH in methanol, 30 min, room temperature
Protocol: A selection of the newly synthesised hybrids was tested for their radical scavenging activity (anti-oxidant activity, EC50), based on their interaction with the 2,2-diphenyl-1-picrylhydrazyl (DPPH) free radical, as previously described.
The anti-oxidant capacity or, more precisely, radical scavenging activity based on the electron and proton donation ability, was evaluated by the DPPH method previously described[29]^,[46]. To a 2.5 mL solution of DPPH (0.002%) in methanol, solutions of each compound were added in different volumes to obtain different concentrations in a 3.5 mL final volume. The samples were incubated for 30 min at room temperature. The absorbance was measured at 517 nm against the corresponding blank (methanol). The antioxidant activity was calculated by Eq. (1)^29. (1) %AA = ((ADPPH−Asample)/ADPPH) × 100
The tests were carried out in triplicate. The compound concentration providing 50% of antioxidant activity (EC50) was obtained by plotting the antioxidant activity against the compound concentration.

Aβ1-42 [3] = biological target: T2, Aβ1-42; experiment: Inhibition of Cu2+-induced Aβ1-42 aggregation, thioflavin T fluorescence; format: biochemical; conditions: Aβ42 aggregation with copper (40 µM); inhibitor 80 µM; ThT fluorescence; read-out: Aβ aggregation inhibition, Cu-ind Aβ aggr
Text: as §1, §2
as §3, with “The samples were prepared using MeOH (1 mg/mL) as solvent, followed by incubation in a water bath for 24 h at 37 °C with gentle shaking. After incubation, the samples were added to a 96-well plate (BD Falcon) with 180 µL of 5 µM ThT in 50 mM glycine-NaOH (pH 8.5) buffer. Blank samples were prepared for each concentration in a similar way, devoid of peptide.” left out

SH-SY5Y cells = experiment: Dose-response screening for non-toxic concentrations, MTT reduction assay; format: cell-based, human; conditions: 10 µM to 40 µM, 25 h
Protocol: The neuroprotective effect of these new multi-target drugs designed for AD was evaluated using SH-SY5Y cells treated with Aβ1-42 peptides or ascorbate/iron. For each compound we performed a dose-response curve to select a non-toxic concentration (Figure 7).
Figure 7. Dose-response screening to select non-toxic concentrations of TAC-BF hybrids. Cells were treated with varying concentration of TAC-BF conjugates (from 10 μM to 40 μM) for 25 h and cell viability was determined using the MTT reduction assay.
SH-SY5Y human neuroblastoma cell line (ATCC-CRL-2266) is grown in Dulbecco’s modified Eagle’s medium (DMEM), and were obtained from Gibco-Invitrogen (Life Technologies Ltd, UK) with 10% heat inactivated foetal calf serum, containing 50 U/mL penicillin and 50 µg/mL streptomycin, under a humidified atmosphere of 95% air- 5% CO2 at 37 °C. Cells were plated at 0.12 × 10^6 cells/mL for cell viability assay. The tested compounds (18, 19, 20, 21, 23 and 24) were dissolved in DMSO at a concentration of 50 mM and aliquots were stored at −20 °C. We performed a dose-response screening (from 10 µM to 40 µM) in order to choose the highest non-toxic concentration. As a result we selected: 20 µM final concentrations for compounds 18, 19, 20 and 23; 20 µM final concentration for compound 19; 35 µM final concentration for compounds 21 and 24. […] The compounds were added to the cell media 1 h before the incubation with Aβ1-42 or L-ascorbic acid/ferrous sulphate. Aβ1-42 or L-ascorbic acid/ferrous sulphate where incubated alone or with the compound for an additional 24 h. Aβ1-42 was prepared as 276.9 µM stock in sterile water and added to the medium at 2.5 µM final concentration. Ferrous sulphate was freshly prepared as 0.36 M stock in water and added to the medium at 500 µM final concentration. L-Ascorbic Acid was freshly prepared as 80 mM stock in water and added to the medium at 5 mM final concentration. Aβ1-42 was purchased from Bachem (Torrance, CA, USA) and ferrous sulphate and L-ascorbic acid from Sigma Chemical Co (St. Louis, MO, USA).
Cell viability was determined by the MTT (3–(4,5-dimethylthiazol-2-yl)-2,5-diphenyltetrazolium bromide) reduction test. In viable cells, the enzyme succinate dehydrogenase metabolises MTT into a formazan that absorbs light at 570 nm. Following the cell treatment protocol, the medium was aspirated and 0.5 mL MTT (0.5 mg/mL) was added to each well. The plate was then incubated at 37 °C for 1 h 30 min protected from light. At the end of the incubation period, the formazan precipitates were solubilised with 0.5 mL of acidic isopropanol (0.04 M HCl/isopropanol). The absorbance was measured at 570 nm[51]. Cell reduction ability was expressed as a percentage of untreated control cells.

[4] = AChE from Electric eel, mean of five independent experiments, read-out: AChE inhibition IC50
[5] = self-mediated Aβ42 aggregation without copper, inhibitor 80 µM, ThT fluorescence

SMILES	IC50 (AChE; [4])	inhibition at 80 µM (Aβ1-42 [1]; [5])	other results
O=C(NCCCCNc1c2c(nc3cc(Cl)ccc13)CCCC2)c1cc2ccccc2o1 [Compound 16, N-(4-((6-chloro-1,2,3,4-tetrahydroacridin-9-yl)amino)butyl)benzofuran-2-carboxamide]	340 nM	43%	
O=C(NCCCNc1c2c(nc3cc(Cl)ccc13)CCCC2)c1cc2ccccc2o1 [Compound 15, N-(3-((6-chloro-1,2,3,4-tetrahydroacridin-9-yl)amino)propyl)benzofuran-2-carboxamide]	120 nM	51%	
Nc1c2c(nc3ccccc13)CCCC2 [TAC, tacrine, reference compound]			inhibition at 80 µM (Aβ1-42 [1]): 20%; Radical scavenging activity EC50 (DPPH) [2]: weak activity
O=C(NCCCCNc1c2c(nc3ccccc13)CCCC2)c1cc2ccccc2o1 [Compound 14, N-(4-((1,2,3,4-tetrahydroacridin-9-yl)amino)butyl)benzofuran-2-carboxamide]	720 nM	51.5%	
O=C(NCCCNc1c2c(nc3ccccc13)CCCC2)c1cc2ccccc2o1 [Compound 13, N-(3-((1,2,3,4-tetrahydroacridin-9-yl)amino)propyl)benzofuran-2-carboxamide]	580 nM	60.6%	
O=C(NCCCCNc1c2c(nc3ccccc13)CCCC2)c1cc2cccc(O)c2o1 [Compound 22, 7-Hydroxy-N-(4-((1,2,3,4-tetrahydroacridin-9-yl)amino)butyl)benzofuran-2-carboxamide]	980 nM	30.4%	inhibition at 80 µM (Aβ1-42 [3]): 54%
COc1cccc2cc(C(=O)NCCCNc3c4c(nc5ccccc35)CCCC4)oc12 [Compound 17, 7-Methoxy-N-(3-((1,2,3,4-tetrahydroacridin-9-yl)amino)propyl)benzofuran-2-carboxamide]	360 nM	57.5%	
COc1cccc2cc(C(=O)NCCCCNc3c4c(nc5ccccc35)CCCC4)oc12 [Compound 18, 7-Methoxy-N-(4-((1,2,3,4-tetrahydroacridin-9-yl)amino)butyl)benzofuran-2-carboxamide]			IC50 (AChE): 760 nM; inhibition at 80 µM (Aβ1-42 [1]): 51.9%; highest non-toxic concentration selected from dose-response screening (SH-SY5Y cells): 20 µM
